A value given as a limit tells only on which side of the number the result lay.

The first assay concerns Jily. The assay can be described thus: MTS proliferation assay, Jily. Type of assay: cell-based. The following applies: 72 h incubation, read-out: MTS proliferation assay IC 50 Jily. As for the experimental part:
Cell lines are cultured in RPMI-1640 tissue culture medium containing either 5% or 10% fetal calf serum, 0.05 mM 2-mercaptoethanol, 2 mM glutamine and penicillin/streptomycin 50 μg/ml (complete medium) (Sigma, Buchs, Switzerland). General growth conditions are 37° C. and 7.5% CO2.
The assay is performed in 96 well tissue culture plates. The cells (range: 1.5*10^3-10^4) are seeded out in 80 μl complete medium 24 h prior to compound treatment. The test compounds are added in 20 μl complete medium containing max 5% DMSO. The final compound concentrations in the assays are 10 μM, 3 μM, 1 μM and 0.3 μM, respectively. The assay plates are incubated for 72 h at culture conditions. The MTS reagent is prepared according to the manufacturer's protocol (Promega G1111). 20 μl MTS reagent are added to each well, the assay plates are quickly spun and incubated for another 3 h at culture conditions. Subsequently, the plates are shortly shaked and absorption measured with a microplate-reader at 492 nm.
Background: Formazan colour is commonly taken as a measure of viable cells.
Regarding `CCc1ccc(C(=O)Cn2c(-c3nonc3NCCC#N)nc3ccccc32)cc1` [Example 56], the IC50 is 0.01 to 0.1 µM.
As for `Nc1nonc1-c1nc2ccccc2n1CC(=O)c1cc(F)ccc1F` [Example 71], the IC50 was in the range of 0.1 to 1 µM.
The same measure, in the same setting: the same measure for `Cc1ccc(OCn2c(-c3nonc3N)nc3ccccc32)cc1C` [Example 101]: 0.01 to 0.1 µM.

Another assay relates to HT1080. The assay can be described thus: MTS proliferation assay, HT1080. It is filed as cell-based, human. As to conditions: HT1080, 72 h incubation; read-out: MTS proliferation assay IC 50 HT1080. The gist of the method:
(§1)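 Proliferation: RPMI-1640/FCS complete medium, 37 °C, 7.5% CO2, cells plated 24 h pre-dose; compounds at 10, 3, 1, 0.3 μM final for 72 h; MTS, 492 nm.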
With `CCc1ccc(C(=O)Cn2c(-c3nonc3NCCC#N)nc3ccccc32)cc1` [Example 56], the IC50 lay in the range of 0.01 to 0.1 µM.
On the same count and under the same terms, to `Nc1nonc1-c1nc2ccccc2n1CC(=O)c1cc(F)ccc1F` [Example 71] belongs more than 1 µM; to `Cc1ccc(OCn2c(-c3nonc3N)nc3ccccc32)cc1C` [Example 101], 0.01 to 0.1 µM.

Another assay relates to HeLa. The assay can be described thus: MTS proliferation assay, HeLa. Type of assay: cell-based, human. As to conditions: 72 h incubation, read-out: MTS proliferation assay IC 50 HeLa. The gist of the method: as §1
`CCc1ccc(C(=O)Cn2c(-c3nonc3NCCC#N)nc3ccccc32)cc1` [Example 56]: the IC50 was 0.01 to 0.1 µM.
As to `Nc1nonc1-c1nc2ccccc2n1CC(=O)c1cc(F)ccc1F` [Example 71], the IC50 lay in the range of 0.1 to 1 µM.
Still for that read-out and setting: to `Cc1ccc(OCn2c(-c3nonc3N)nc3ccccc32)cc1C` [Example 101] belongs 0.01 to 0.1 µM.

The next assay deals with MRC5. Kind of assay: MTS proliferation assay, MRC5. Type of assay: cell-based. As to conditions: MRC5, 72 h incubation; read-out: MTS proliferation assay IC 50 MRC5. The gist of the method: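 Viability after 72 h compound exposure at 10, 3, 1 and 0.3 μM final was scored by MTS absorbance (492 nm, 3 h reagent incubation), with cells kept in RPMI-1640 containing 5% or 10% fetal calf serum.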
On to `CCc1ccc(C(=O)Cn2c(-c3nonc3NCCC#N)nc3ccccc32)cc1` [Example 56], for which the IC50 fell in the range of 0.01 to 0.1 µM.
Still for that read-out and setting: the same measure for `Nc1nonc1-c1nc2ccccc2n1CC(=O)c1cc(F)ccc1F` [Example 71]: more than 1 µM; for `Cc1ccc(OCn2c(-c3nonc3N)nc3ccccc32)cc1C` [Example 101]: 0.01 to 0.1 µM.

A further assay concerns adherent cells or suspension cells. The assay can be described thus: Hoechst 33342 nuclear staining (fraction of apoptotic nuclei). It is filed as cell-based. The arrangement: key: 0 relating to no activity; 1 relating to weak activity comprising less than 70% of the cells; score 2 relating to strong activity comprising more than 70% of the cells. As to conditions: H460, conc 0.01 μm.
Turning to `CCc1ccc(C(=O)Cn2c(-c3nonc3NCCC#N)nc3ccccc32)cc1` [Example 56], the “Hoechst 33342 nuclear staining score” value is recorded as 0.
Same read-out and setting: the same measure for `Nc1nonc1-c1nc2ccccc2n1CC(=O)c1cc(F)ccc1F` [Example 71]: 0.
Same read-out and setting: to `Cc1ccc(OCn2c(-c3nonc3N)nc3ccccc32)cc1C` [Example 101] belongs 0.

Staying with this assay, now noted: H460, conc 0.1 μm.
As to `CCc1ccc(C(=O)Cn2c(-c3nonc3NCCC#N)nc3ccccc32)cc1` [Example 56], the “Hoechst 33342 nuclear staining score” value came to 0.
As for `Nc1nonc1-c1nc2ccccc2n1CC(=O)c1cc(F)ccc1F` [Example 71], the “Hoechst 33342 nuclear staining score” value is 0.
The same measure, in the same setting: to `Cc1ccc(OCn2c(-c3nonc3N)nc3ccccc32)cc1C` [Example 101] belongs 1 (1 relating to weak activity comprising less than 70% of the cells).

The same assay, now with this note: H460, conc 1 μm.
With `CCc1ccc(C(=O)Cn2c(-c3nonc3NCCC#N)nc3ccccc32)cc1` [Example 56], the “Hoechst 33342 nuclear staining score” value is given as 2 (score 2 relating to strong activity comprising more than 70% of the cells).
As to `Nc1nonc1-c1nc2ccccc2n1CC(=O)c1cc(F)ccc1F` [Example 71], the “Hoechst 33342 nuclear staining score” value was found to be 0.
Still for that read-out and setting: to `Cc1ccc(OCn2c(-c3nonc3N)nc3ccccc32)cc1C` [Example 101] belongs 2 (score 2 relating to strong activity comprising more than 70% of the cells).

The same assay, now with this note: HeLa, conc 0.01 μm.
On to `CCc1ccc(C(=O)Cn2c(-c3nonc3NCCC#N)nc3ccccc32)cc1` [Example 56], for which the “Hoechst 33342 nuclear staining score” value worked out at 0.
With `Nc1nonc1-c1nc2ccccc2n1CC(=O)c1cc(F)ccc1F` [Example 71], the “Hoechst 33342 nuclear staining score” value is recorded as 0.
Consider `Cc1ccc(OCn2c(-c3nonc3N)nc3ccccc32)cc1C` [Example 101], for which the “Hoechst 33342 nuclear staining score” value is recorded as 0.

Staying with this assay, now noted: HeLa, conc 0.1 μm.
Consider `CCc1ccc(C(=O)Cn2c(-c3nonc3NCCC#N)nc3ccccc32)cc1` [Example 56], for which the “Hoechst 33342 nuclear staining score” value was 1 (1 relating to weak activity comprising less than 70% of the cells).
On the same count and under the same terms, the same measure for `Nc1nonc1-c1nc2ccccc2n1CC(=O)c1cc(F)ccc1F` [Example 71]: 0; for `Cc1ccc(OCn2c(-c3nonc3N)nc3ccccc32)cc1C` [Example 101]: 1 (1 relating to weak activity comprising less than 70% of the cells).

The same assay, now with this note: HeLa, conc 1 μm.
Regarding `CCc1ccc(C(=O)Cn2c(-c3nonc3NCCC#N)nc3ccccc32)cc1` [Example 56], the “Hoechst 33342 nuclear staining score” value is 2 (score 2 relating to strong activity comprising more than 70% of the cells).
In the case of `Nc1nonc1-c1nc2ccccc2n1CC(=O)c1cc(F)ccc1F` [Example 71], the “Hoechst 33342 nuclear staining score” value came to 0.
Same read-out and setting: to `Cc1ccc(OCn2c(-c3nonc3N)nc3ccccc32)cc1C` [Example 101] belongs 2 (score 2 relating to strong activity comprising more than 70% of the cells).

Still in this assay, the particulars now being: Jily, conc 0.01 μm.
Regarding `CCc1ccc(C(=O)Cn2c(-c3nonc3NCCC#N)nc3ccccc32)cc1` [Example 56], the “Hoechst 33342 nuclear staining score” value is reported as 0.
Still for that read-out and setting: the same measure for `Nc1nonc1-c1nc2ccccc2n1CC(=O)c1cc(F)ccc1F` [Example 71]: 0; for `Cc1ccc(OCn2c(-c3nonc3N)nc3ccccc32)cc1C` [Example 101]: 0.

Staying with this assay, now noted: Jily, conc 0.1 μm.
`CCc1ccc(C(=O)Cn2c(-c3nonc3NCCC#N)nc3ccccc32)cc1` [Example 56]: the “Hoechst 33342 nuclear staining score” value is recorded as 2 (score 2 relating to strong activity comprising more than 70% of the cells).
On the same count and under the same terms, to `Nc1nonc1-c1nc2ccccc2n1CC(=O)c1cc(F)ccc1F` [Example 71] belongs 0; to `Cc1ccc(OCn2c(-c3nonc3N)nc3ccccc32)cc1C` [Example 101], 1 (1 relating to weak activity comprising less than 70% of the cells).

Still in this assay, the particulars now being: Jily, conc 1 μm.
As for `CCc1ccc(C(=O)Cn2c(-c3nonc3NCCC#N)nc3ccccc32)cc1` [Example 56], the “Hoechst 33342 nuclear staining score” value is 2 (score 2 relating to strong activity comprising more than 70% of the cells).
Still for that read-out and setting: the same measure for `Nc1nonc1-c1nc2ccccc2n1CC(=O)c1cc(F)ccc1F` [Example 71]: 1 (1 relating to weak activity comprising less than 70% of the cells).
Still for that read-out and setting: the same measure for `Cc1ccc(OCn2c(-c3nonc3N)nc3ccccc32)cc1C` [Example 101]: 2 (score 2 relating to strong activity comprising more than 70% of the cells).

The assay is the same for the next values; noted with them: Jurkat, conc 0.01 μm.
Regarding `CCc1ccc(C(=O)Cn2c(-c3nonc3NCCC#N)nc3ccccc32)cc1` [Example 56], the “Hoechst 33342 nuclear staining score” value is recorded as 0.
Still for that read-out and setting: to `Nc1nonc1-c1nc2ccccc2n1CC(=O)c1cc(F)ccc1F` [Example 71] belongs 0.
Still for that read-out and setting: to `Cc1ccc(OCn2c(-c3nonc3N)nc3ccccc32)cc1C` [Example 101] belongs 0.

Still in this assay, the particulars now being: Jurkat, conc 0.1 μm.
Take `CCc1ccc(C(=O)Cn2c(-c3nonc3NCCC#N)nc3ccccc32)cc1` [Example 56]: the “Hoechst 33342 nuclear staining score” value is listed as 2 (score 2 relating to strong activity comprising more than 70% of the cells).
The same measure, in the same setting: the same measure for `Nc1nonc1-c1nc2ccccc2n1CC(=O)c1cc(F)ccc1F` [Example 71]: 0; for `Cc1ccc(OCn2c(-c3nonc3N)nc3ccccc32)cc1C` [Example 101]: 2 (score 2 relating to strong activity comprising more than 70% of the cells).

Staying with this assay, now noted: Jurkat, conc 1 μm.
Take `CCc1ccc(C(=O)Cn2c(-c3nonc3NCCC#N)nc3ccccc32)cc1` [Example 56]: the “Hoechst 33342 nuclear staining score” value was 2 (score 2 relating to strong activity comprising more than 70% of the cells).
Same read-out and setting: the same measure for `Nc1nonc1-c1nc2ccccc2n1CC(=O)c1cc(F)ccc1F` [Example 71]: 2 (score 2 relating to strong activity comprising more than 70% of the cells); for `Cc1ccc(OCn2c(-c3nonc3N)nc3ccccc32)cc1C` [Example 101]: 2 (score 2 relating to strong activity comprising more than 70% of the cells).

The same assay, now with this note: MRC5, conc 0.01 μm.
`CCc1ccc(C(=O)Cn2c(-c3nonc3NCCC#N)nc3ccccc32)cc1` [Example 56]: the “Hoechst 33342 nuclear staining score” value came out at 0.
Still for that read-out and setting: the same measure for `Nc1nonc1-c1nc2ccccc2n1CC(=O)c1cc(F)ccc1F` [Example 71]: 0.
Still for that read-out and setting: to `Cc1ccc(OCn2c(-c3nonc3N)nc3ccccc32)cc1C` [Example 101] belongs 0.

Staying with this assay, now noted: MRC5, conc 0.1 μm.
With `CCc1ccc(C(=O)Cn2c(-c3nonc3NCCC#N)nc3ccccc32)cc1` [Example 56], the “Hoechst 33342 nuclear staining score” value is 1 (1 relating to weak activity comprising less than 70% of the cells).
On the same count and under the same terms, the same measure for `Nc1nonc1-c1nc2ccccc2n1CC(=O)c1cc(F)ccc1F` [Example 71]: 0; for `Cc1ccc(OCn2c(-c3nonc3N)nc3ccccc32)cc1C` [Example 101]: 1 (1 relating to weak activity comprising less than 70% of the cells).

Still in this assay, the particulars now being: MRC5, conc 1 μm.
For the compound `CCc1ccc(C(=O)Cn2c(-c3nonc3NCCC#N)nc3ccccc32)cc1` [Example 56], the “Hoechst 33342 nuclear staining score” value was 1 (1 relating to weak activity comprising less than 70% of the cells).
Still for that read-out and setting: to `Nc1nonc1-c1nc2ccccc2n1CC(=O)c1cc(F)ccc1F` [Example 71] belongs 0; to `Cc1ccc(OCn2c(-c3nonc3N)nc3ccccc32)cc1C` [Example 101], 1 (1 relating to weak activity comprising less than 70% of the cells).

The same assay, now with this note: PBLs, conc 0.01 μm.
`CCc1ccc(C(=O)Cn2c(-c3nonc3NCCC#N)nc3ccccc32)cc1` [Example 56]: the “Hoechst 33342 nuclear staining score” value worked out at 0.
On to `Nc1nonc1-c1nc2ccccc2n1CC(=O)c1cc(F)ccc1F` [Example 71], for which the “Hoechst 33342 nuclear staining score” value came to 0.
As for `Cc1ccc(OCn2c(-c3nonc3N)nc3ccccc32)cc1C` [Example 101], the “Hoechst 33342 nuclear staining score” value stood at 0.

The assay is the same for the next values; noted with them: PBLs, conc 0.1 μm.
Regarding `CCc1ccc(C(=O)Cn2c(-c3nonc3NCCC#N)nc3ccccc32)cc1` [Example 56], the “Hoechst 33342 nuclear staining score” value was 0.
On the same count and under the same terms, to `Nc1nonc1-c1nc2ccccc2n1CC(=O)c1cc(F)ccc1F` [Example 71] belongs 0.
On to `Cc1ccc(OCn2c(-c3nonc3N)nc3ccccc32)cc1C` [Example 101], for which the “Hoechst 33342 nuclear staining score” value came out at 0.

Staying with this assay, now noted: PBLs, conc 1 μm.
For `CCc1ccc(C(=O)Cn2c(-c3nonc3NCCC#N)nc3ccccc32)cc1` [Example 56], the “Hoechst 33342 nuclear staining score” value is recorded as 0.
Take `Nc1nonc1-c1nc2ccccc2n1CC(=O)c1cc(F)ccc1F` [Example 71]: the “Hoechst 33342 nuclear staining score” value is on record as 0.
On to `Cc1ccc(OCn2c(-c3nonc3N)nc3ccccc32)cc1C` [Example 101], for which the “Hoechst 33342 nuclear staining score” value was 0.
